Assay results reported in BindingDB's records for patent US20250289799 (Jiangsu Yahong Meditech Co., 2025).

Target: Ubiquitin carboxyl-terminal hydrolase 1/WD repeat-containing protein 48 (Homo sapiens, UniProt O94782+Q8TAF3)
Assay: In Vitro USP1  Inhibitory Activity
Procedure: Experimental Methods1) Preparation of 1× assay buffer: 1× assay buffer (modified Tris buffer) was prepared;2) Compound dilution: The compound was transferred to the assay plate by Echo.

Ubiquitin carboxyl-terminal hydrolase 1/WD repeat-containing protein 48, sequence (O94782 whole entry): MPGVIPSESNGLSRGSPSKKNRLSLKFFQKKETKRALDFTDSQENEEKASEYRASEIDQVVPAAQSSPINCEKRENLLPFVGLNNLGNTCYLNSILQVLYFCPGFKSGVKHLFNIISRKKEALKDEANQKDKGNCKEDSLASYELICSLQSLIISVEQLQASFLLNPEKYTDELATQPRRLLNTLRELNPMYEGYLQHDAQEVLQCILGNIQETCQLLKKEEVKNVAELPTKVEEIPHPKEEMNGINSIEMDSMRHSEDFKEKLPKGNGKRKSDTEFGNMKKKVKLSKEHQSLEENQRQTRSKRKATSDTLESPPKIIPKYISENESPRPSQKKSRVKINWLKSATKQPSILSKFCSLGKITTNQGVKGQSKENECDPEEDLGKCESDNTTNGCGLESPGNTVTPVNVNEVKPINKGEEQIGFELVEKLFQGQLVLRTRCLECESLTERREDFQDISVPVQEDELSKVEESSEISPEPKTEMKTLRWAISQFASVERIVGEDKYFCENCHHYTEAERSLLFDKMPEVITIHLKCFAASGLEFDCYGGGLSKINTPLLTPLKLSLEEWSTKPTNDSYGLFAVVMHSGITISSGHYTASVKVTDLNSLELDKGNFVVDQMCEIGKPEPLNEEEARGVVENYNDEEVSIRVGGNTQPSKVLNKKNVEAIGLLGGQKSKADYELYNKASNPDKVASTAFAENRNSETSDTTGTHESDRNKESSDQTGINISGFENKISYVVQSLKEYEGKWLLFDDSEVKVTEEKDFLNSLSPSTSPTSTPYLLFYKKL
Ubiquitin carboxyl-terminal hydrolase 1/WD repeat-containing protein 48, sequence (Q8TAF3 whole entry): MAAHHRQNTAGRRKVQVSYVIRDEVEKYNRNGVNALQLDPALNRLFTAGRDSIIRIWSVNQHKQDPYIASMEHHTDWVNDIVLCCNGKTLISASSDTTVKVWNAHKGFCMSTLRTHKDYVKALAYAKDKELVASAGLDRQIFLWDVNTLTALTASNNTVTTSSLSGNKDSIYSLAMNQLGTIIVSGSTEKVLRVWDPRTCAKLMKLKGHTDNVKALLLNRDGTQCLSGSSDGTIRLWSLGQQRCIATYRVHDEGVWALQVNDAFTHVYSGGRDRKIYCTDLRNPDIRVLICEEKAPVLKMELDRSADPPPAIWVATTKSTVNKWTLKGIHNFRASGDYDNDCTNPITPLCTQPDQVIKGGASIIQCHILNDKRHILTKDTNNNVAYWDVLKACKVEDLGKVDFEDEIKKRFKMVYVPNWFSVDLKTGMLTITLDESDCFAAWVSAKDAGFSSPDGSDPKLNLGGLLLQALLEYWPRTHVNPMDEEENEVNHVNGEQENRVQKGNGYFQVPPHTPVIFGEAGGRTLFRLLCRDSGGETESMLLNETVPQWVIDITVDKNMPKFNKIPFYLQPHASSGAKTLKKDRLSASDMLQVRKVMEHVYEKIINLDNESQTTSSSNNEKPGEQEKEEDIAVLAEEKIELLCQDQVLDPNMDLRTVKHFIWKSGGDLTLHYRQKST

| SMILES | IC50 [nM] |
| --- | --- |
| COc1cnc(-c2ccccc2C(C)C)nc1N(C)Cc1ccc(-c2ccccn2)cc1 [US20250289799, Example 1] | 26 |
| COc1cnc(-c2ccccc2C(C)C)nc1N(C)CC1CCN(c2ccccn2)CC1 [US20250289799, Example 2] | 14 |
| COc1cnc(-c2ccccc2C(C)C)nc1N(C)Cc1ccc(-c2nc(C(F)(F)F)cn2C)cc1 [US20250289799, Example 3] | 2.8 |
| COc1cnc(-c2ccccc2C(C)C)nc1NCc1ccc(-c2nc(C(F)(F)F)cn2C)cc1 [US20250289799, Example 4] | 1.2 |
| COc1cnc(-c2ccccc2C(C)C)nc1NCC1CCN(c2ccccn2)CC1 [US20250289799, Example 5] | 7.6 |
| COc1cnc(-c2ccccc2C(C)C)nc1NCc1ccc(-n2nc(C(F)(F)F)cc2C)cc1 [US20250289799, Example 7] | 4.5 |
| COc1cnc(-c2c(OC)ncnc2C2CC2)nc1N(C)Cc1ccc(-c2nc(C(F)(F)F)cn2C)cc1 [US20250289799, Example 8] | 1.4 |
| COc1ncnc(C2CC2)c1-c1ncc2c(n1)N(Cc1ccc(-c3ccccn3)cc1)CCO2 [US20250289799, Example 9] | 35 |
| COc1ncnc(C2CC2)c1-c1ncc2c(n1)N(CC1CCN(c3ccccn3)CC1)CCO2 [US20250289799, Example 10] | 564 |
| COc1cnc(-c2ccccc2C(C)C)nc1NCc1ccc(-c2nccn3ccnc23)cc1 [US20250289799, Example 11] | 22 |
| Cc1cc(C(F)(F)F)nn1-c1ccc(CN2C(=O)COc3cnc(-c4ccccc4C(C)C)nc32)cc1 [US20250289799, Example 15] | 6.8 |
| CC(C)c1ccccc1-c1ncc(C(F)(F)F)c(NCc2ccc(-c3nc(C(F)(F)F)cn3C)cc2)n1 [US20250289799, Example 17] | 3.9 |
| COc1cnc(-c2c(OC)ncnc2C2CC2)nc1N(C)Cc1ccc(-c2ccccn2)cc1 [US20250289799, Example 19] | 24 |
| COc1ncnc(C2CC2)c1-c1ncc2c(n1)N(CC1CCN(c3nc(C(F)(F)F)cn3C)CC1)CCO2 [US20250289799, Example 20] | 91.5 |
| CC(C)c1ccccc1-c1ncc2c(n1)N(CC1CCN(c3nc(C(F)(F)F)cn3C)CC1)C(=O)CO2 [US20250289799, Example 24] | 8.8 |
| CC(C)c1ccccc1-c1ncc(C(F)(F)F)c(NCC2CCN(c3nc(C(F)(F)F)cn3C)CC2)n1 [US20250289799, Example 25] | 3.7 |
| COc1cnc(-c2c(OC)ncnc2C2CC2)nc1NCc1ccc(-n2nc(C(F)(F)F)cc2C)cc1 [US20250289799, Example 26] | 4.6 |
| COc1cnc(-c2c(OC)ncnc2C2CC2)nc1NCc1ccc(-c2nc(C(F)(F)F)cn2C)cc1 [US20250289799, Example 29] | 4.8 |
| COc1ncnc(C2CC2)c1-c1ncc2c(n1)N(CC1CCN(c3nc(C(F)(F)F)cn3C)CC1)C(=O)CO2 [US20250289799, Example 30] | 37 |
| CC(C)c1ccccc1-c1nc(NCc2ccc(-c3ccccn3)cc2)c2occc2n1 [US20250289799, Example 32] | 2.8 |
| CC(C)c1ccccc1-c1nc(NCc2ccc(-c3nc(C(F)(F)F)cn3C)cc2)c2occc2n1 [US20250289799, Example 33] | 1.2 |
| COc1ncnc(C2CC2)c1-c1nc(NCc2ccc(-c3nc(C(F)(F)F)cn3C)cc2)c2occc2n1 [US20250289799, Example 35] | 9.6 |

| SMILES | IC50 [nM] |
| --- | --- |
| CC(C)c1ccccc1-c1nc(NCc2ccc(-c3ccccn3)cc2)c2[nH]ccc2n1 [US20250289799, Example 36] | 22.4 |
| COc1ncnc(C2CC2)c1-c1nc(NCc2ccc(-c3ccccn3)cc2)c2[nH]ccc2n1 [US20250289799, Example 37] | 51 |
| CC(C)c1ccccc1-c1nc(NCc2ccc(-c3nc(C(F)(F)F)cn3C)cc2)c2ncccc2n1 [US20250289799, Example 40] | 2.3 |
| COc1cnc(-c2ccccc2C(C)C)nc1NCc1ccc2c(c1)CN(C1CCC(=O)NC1=O)C2=O (stereo unspecified) [US20250289799, Example 41] | 1260 |
| COc1ncnc(C2CC2)c1-c1nc(NCc2ccc(-n3nc(C(F)(F)F)cc3C)cc2)c2occc2n1 [US20250289799, Example 50] | 5.2 |
| Cc1cc(C(F)(F)F)nn1-c1ccc(CNc2nc(-c3ccccc3C(C)C)nc3ccoc23)cc1 [US20250289799, Example 57] | 4.4 |
| COc1cnc(-c2ccccc2C(C)C)nc1N(C)CC1CCC(c2ccccn2)CC1 (stereo unspecified) [US20250289799, Example 61] | 11 |
| COc1cnc(-c2ccccc2C(C)C)nc1N(C)CC1CCN(c2nc(C(F)(F)F)cn2C)CC1 [US20250289799, Example 62] | 2.1 |
| COc1cnc(-c2ccccc2C(C)C)nc1NCC1CCC(c2ccccn2)CC1 (stereo unspecified) [US20250289799, Example 63] | 3.3 |
| COc1cnc(-c2ccccc2C(C)C)nc1NCc1ccc(-c2ccccn2)cc1 [US20250289799, Example 64] | 3.7 |
| COc1cnc(-c2ccccc2C(C)C)nc1NCC1CCN(c2nc(C(F)(F)F)cn2C)CC1 [US20250289799, Example 65] | 2.1 |
| COc1cnc(-c2ccccc2C(C)C)nc1NCc1ccc(-c2ccc(C)cn2)cc1 [US20250289799, Example 66] | 5.6 |
| COc1cnc(-c2ccccc2C(C)C)nc1NCc1ccc(OCc2ccccn2)cc1 [US20250289799, Example 67] | 5.3 |
| CCOCCOc1ccc(CNc2nc(-c3ccccc3C(C)C)ncc2OC)cc1 [US20250289799, Example 68] | 3.2 |
| COc1cc(CNc2nc(-c3ccccc3C(C)C)ncc2OC)ccc1-n1nc(C(F)(F)F)cc1C [US20250289799, Example 69] | 9.2 |
| CC(C)Oc1cnc(-c2ccccc2C(C)C)nc1N(C)CC1CCN(c2nc(C(F)(F)F)cn2C)CC1 [US20250289799, Example 70] | 19.4 |
| CC(C)Oc1cnc(-c2ccccc2C(C)C)nc1N(C)Cc1ccc(-c2nc(C(F)(F)F)cn2C)cc1 [US20250289799, Example 71] | 9.9 |
| CC(C)Oc1cnc(-c2ccccc2C(C)C)nc1NCC1CCN(c2nc(C(F)(F)F)cn2C)CC1 [US20250289799, Example 72] | 6.1 |
| CC(C)Oc1cnc(-c2ccccc2C(C)C)nc1NCc1ccc(-c2nc(C(F)(F)F)cn2C)cc1 [US20250289799, Example 73] | 3.6 |
| CC(C)Oc1cnc(-c2ccccc2C(C)C)nc1NCC12CCC(c3ccc(C(F)(F)F)cn3)(CC1)CC2 [US20250289799, Example 74] | 873 |
| CC(C)c1ccccc1-c1ncc(C(F)(F)F)c(NCC2CCN(c3nc(C(F)(F)F)cn3C)CC2)n1 [US20250289799, Example 75] | 3.7 |
| CC(C)c1ccccc1-c1ncc(C(F)(F)F)c(NCC2CCN(c3ccccn3)CC2)n1 [US20250289799, Example 76] | 30.1 |

| SMILES | IC50 [nM] |
| --- | --- |
| CC(C)c1ccccc1-c1nc(NCc2ccc3c(c2)CCN(C)C3=O)c2occc2n1 [US20250289799, Example 77] | 28 |
| CC(C)c1ccccc1-c1nc(NCc2ccc3c(c2)CCN(C(C)C)C3=O)c2occc2n1 [US20250289799, Example 78] | 6.4 |
| CCOCCOc1ccc(CNc2nc(-c3ccccc3C(C)C)nc3ccoc23)cc1 [US20250289799, Example 79] | 4.5 |
| COC1CC(Oc2ccc(CNc3nc(-c4ccccc4C(C)C)nc4ccoc34)cc2)C1 (stereo unspecified) [US20250289799, Example 80] | 26 |
| COc1cc(-c2nc(C(F)(F)F)cn2C)ccc1CNc1nc(-c2ccccc2C(C)C)nc2ccoc12 [US20250289799, Example 81] | 3.7 |
| COc1cc(CNc2nc(-c3ccccc3C(C)C)nc3ccoc23)ccc1-c1nc(C(F)(F)F)cn1C [US20250289799, Example 82] | 1.7 |
| COc1cc(-n2nc(C(F)(F)F)cc2C)ccc1CNc1nc(-c2ccccc2C(C)C)nc2ccoc12 [US20250289799, Example 83] | 4.4 |
| COc1cc(CNc2nc(-c3ccccc3C(C)C)nc3ccoc23)ccc1-n1nc(C(F)(F)F)cc1C [US20250289799, Example 84] | 9 |
| C#Cc1cnc(-c2ccccc2C(C)C)nc1NCc1ccc(-c2nc(C(F)(F)F)cn2C)cc1 [US20250289799, Example 85] | 0.47 |
| CC(C)c1ccccc1-c1ncc(OC(F)F)c(NCc2ccc(-c3nc(C(F)(F)F)cn3C)cc2)n1 [US20250289799, Example 86] | 1.1 |
| CC(C)c1ccccc1-c1ncc(N2CCOCC2)c(NCc2ccc(-c3nc(C(F)(F)F)cn3C)cc2)n1 [US20250289799, Example 87] | 6.2 |
| CC(C)c1ccccc1-c1ncc(N2CCN(C)CC2)c(NCc2ccc(-c3nc(C(F)(F)F)cn3C)cc2)n1 [US20250289799, Example 88] | 10 |
| COC(=O)Cc1cnc(-c2ccccc2C(C)C)nc1NCc1ccc(-c2nc(C(F)(F)F)cn2C)cc1 [US20250289799, Example 91] | 1.3 |
| COc1cnc(-c2c(OC)ncnc2C2CC2)nc1N(C)CC1CCN(c2nc(C(F)(F)F)cn2C)CC1 [US20250289799, Example 92] | 3.3 |
| COc1cnc(-c2c(OC)ncnc2C2CC2)nc1N(C)Cc1ccc(-c2nc(C(F)(F)F)cn2C(C)C)cc1 [US20250289799, Example 93] | 1.5 |
| COc1cnc(-c2c(OC)ncnc2C2CC2)nc1NCc1ccc(-c2ccccn2)cc1 [US20250289799, Example 94] | 6.5 |
| COc1cnc(-c2c(OC)ncnc2C2CC2)nc1NCC1CCN(c2nc(C(F)(F)F)cn2C)CC1 [US20250289799, Example 95] | 8.4 |
| COc1cnc(-c2c(OC)ncnc2C2CC2)nc1NCc1ccc(-c2nc(C(F)(F)F)cn2C)cc1 [US20250289799, Example 96] | 4.8 |
| COc1cnc(-c2c(OC)ncnc2C2CC2)nc1NCc1ccc2c(c1)CCN(C(C)C)C2=O [US20250289799, Example 97] | 263 |
| COc1cnc(-c2c(OC)ncnc2C2CC2)nc1NCc1ccc(OCc2ccccn2)cc1 [US20250289799, Example 98] | 144 |
| CCOCCOc1ccc(CNc2nc(-c3c(OC)ncnc3C3CC3)ncc2OC)cc1 [US20250289799, Example 99] | 15.1 |
| COc1cc(-c2nc(C(F)(F)F)cn2C)ccc1CNc1nc(-c2c(OC)ncnc2C2CC2)ncc1OC [US20250289799, Example 100] | 4.1 |
